Data on nine compounds can be found in US5440036A, “1,4-benzoxazine derivatives” (SS Pharmaceutical Co., Ltd., priority 1992, dated 1995).

The subject of this assay is endothelium-ablated preparations of the rat aorta. Description: Vasorelaxing effect to endothelium-ablated preparations of the rat aorta. As to conditions: 10 min; endothelium-ablated rat aorta rings, contraction by 30 mM K^+, 37° C., sample compound cumulatively applied at intervals of 10 minutes; read-out: IC50 (50% inhibition concentration). The method, then: Vasorelaxing effect to endothelium-ablated preparations of the rat aorta:
The aorta of each rat (body weight: 200 to 330 g) was isolated and cut at a width of about 3 mm. Endothelium was then ablated off to form a ring preparation. That preparation was incubated at 37° C., and then suspended under a load of 2 g in 10 ml of the Krebs-Henseleit solution which had been aerated with a mixed gas (95% O2, 5% CO2). Tension was isometrically recorded via an FD transducer ("T2-30-240", trade name; manufactured by Orientec) and a dynamic strain gauge ("6M81", trade name; manufactured by NEC-San-ei) Upon an elapsed time of 60 minutes or longer subsequent to the suspension, that is, after the preparation had become stable, 10^-7 M noradrenaline (Nor) was applied several times. Under contraction by 10^-7 M Nor, 10^-7 acetylcholine was applied. Preparations which were not relaxed by the application of 10^-7 acetylcholine were used in the experiment. 30 mM K^+ were applied. From the time point that its contraction had became uniform, a sample compound was cumulatively applied at intervals of 10 minutes so that the 50% inhibition concentration (IC50) was calculated.

Structures are written as SMILES.

On to `CCC(=O)NN1CC(C)(C)Oc2ccc([N+](=O)[O-])cc21` [Compound No. 8, 2,2-Dimethyl-6-nitro-4-propanoylamino-1,4-benzoxazine], for which the IC50 is 12.6 nM.
`C=CC(=O)NN1CC(C)(C)Oc2ccc([N+](=O)[O-])cc21` [compound 11]: the IC50 was 28.8 nM.
As to `CC1(C)Oc2ccc(C#N)cc2[C@@H](N2CCCC2=O)[C@@H]1O` (racemic) [Cromakalim, (±)-trans-6-cyano-2,2-dimethyl-4-(2-oxopyrrolidin-1-yl)-3,4-dihydro-2H-1-benzopyran-3-ol, reference compound], the IC50 worked out at 134 nM.
As for `CCC1(CC)CN(NC(C)=O)c2cc(C(F)(F)F)ccc2O1` [compound 24], the IC50 came to 37.9 nM.
For `CC(=O)NN1CC(C)(C)Oc2ccc(S(=O)(=O)C(F)(F)C(F)(F)F)cc21` [compound 27] the value was 33.6 nM; for `CC(=O)NN1CC(C)(C)Oc2ccc(S(=O)(=O)C(F)(F)F)cc21` [compound 56], 9.6 nM.
For `CC1(C)CN(NC(=O)c2cccnc2)c2cc(C(F)(F)F)ccc2O1` [compound 20] the value was 51.4 nM.
The result for `CC1(C)CN(NC(=O)c2cccnc2)c2cc(S(=O)(=O)C(F)(F)F)ccc2O1` [compound 58] reads 14.3 nM; that for `CCC(=O)NN1CC(C)(C)Oc2ccc(S(=O)(=O)C(F)(F)F)cc21` [compound 57], 15.2 nM.
